Tests used:
[1] = Highest frequency of moderate liver toxicity observed during clinical trials, expressed as a percentage. [column '% BIOL' in source]; conditions: human
[2] = Highest frequency of acute liver toxicity observed during clinical trials, expressed as a percentage. [column '% AIGUE' in source]; conditions: human
[3] = Comments (NB not yet translated). [column 'COMMENTAIRES' in source]; conditions: human
[4] = Times to onset, minimal and maximal, observed in the indexed observations. [column 'DELAI' in source]; conditions: human
[5] = Proposed mechanism(s) of liver damage. [column 'MEC' in source]; conditions: human
[6] = human, serum
[7] = human, serum; remark: listed apart in the source
[8] = human
[9] = human; remark: listed apart in the source
[10] = human; remark: listed apart in the source
[11] = human, serum, 4383 h
[12] = human; remark: listed apart in the source
[13] = human; remark: listed apart in the source
[14] = human; remark: listed apart in the source
[15] = human; remark: listed apart in the source
[16] = human; remark: listed apart in the source
[17] = human; remark: listed apart in the source
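Throughout, for Hepatotoxicity (association with vascular disease): count of indexed literature references reporting vascular liver injury in humans, e.g. peliosis hepatitis, hepatic veno-occlusive disease or Budd-Chiari syndrome.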
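Throughout, for Hepatotoxicity (benign tumour): value is a count of indexed literature references citing a benign tumour confirmed by histopathology.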
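Throughout, for Hepatotoxicity (choleostasis): human cholestatic liver injury, shown by histopathology or by peak ALT or AST elevation over alkaline phosphatase ratio below 2, value counts indexed literature reports.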
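Throughout, for Hepatotoxicity (chronic liver disease): chronic liver injury confirmed by histopathology or persistently raised serum aminotransferase activity beyond 6 months, value given as the count of indexed literature references.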
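Throughout, for Hepatotoxicity (cirrhosis): value is a count of indexed literature references reporting cirrhosis confirmed by histopathology.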
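Throughout, for Hepatotoxicity (cytolytic): human cytolytic liver injury, shown by histopathology or by a ratio above 5 of peak ALT or AST elevation to alkaline phosphatase elevation, value counts indexed references.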
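Throughout, for Hepatotoxicity (granulomatous hepatitis): value is a count of indexed literature references reporting granulomatous liver disease confirmed by histopathology.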
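Throughout, for Hepatotoxicity (malignant tumour): malignant tumour confirmed by histopathology, value gives the count of indexed literature references reporting it.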
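Throughout, for Hepatotoxicity (severe hepatitis): human clinical data: severe hepatitis, meaning potentially life-threatening liver failure or clinically observed cases, the value counts how many indexed literature references report it.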
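Throughout, for Hepatotoxicity (steatosis): steatosis confirmed by histopathology, value is the count of indexed references.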

Compound	Hepatotoxicity (moderate) [1]	Hepatotoxicity (acute) [2]	Hepatotoxicity (comment) [3]	Hepatotoxicity (time to onset) [4]	Hepatotoxicity (mechanism) [5]	Hepatotoxicity (moderate) [6]	Hepatotoxicity (acute) [7]	Hepatotoxicity (cytolytic) [8]	Hepatotoxicity (choleostasis) [9]	Hepatotoxicity (severe hepatitis) [10]	Hepatotoxicity (chronic liver disease) [11]	Hepatotoxicity (cirrhosis) [12]	Hepatotoxicity (granulomatous hepatitis) [13]	Hepatotoxicity (association with vascular disease) [14]	Hepatotoxicity (steatosis) [15]	Hepatotoxicity (malignant tumour) [16]	Hepatotoxicity (benign tumour) [17]	Hepatotoxicity (moderate) ([1]; Liver)	Hepatotoxicity (acute) ([2]; Liver)	Hepatotoxicity (severe hepatitis) ([10]; Liver)
C[C@]12C=CC(=O)C=C1CC[C@@H]1[C@@H]2C(=O)C[C@@]2(C)[C@H]1CC[C@]2(O)C(=O)CO [PREDNISONE]	80%	0%	AGGRAVATION/REACTIVATION_HVB HNF LITHIASE	10 months	Dose-dependant	1	0	0	0	1	0	0	0	0	0	0	1	–	–	–
Cc1ccc(C)c(OCCCC(C)(C)C(=O)O)c1 [GEMFIBROZIL]	–	–	I/LOVASTATINE	9 days - 12 days	Dose-dependant	24	1	1	0	–	0	0	0	0	1	0	0	10%	0%	0
CC(=O)O[C@H]1C[C@@]2(C)[C@@H](C[C@@H](O)[C@H]3[C@@]4(C)CC[C@@H](O)[C@@H](C)[C@@H]4CC[C@@]32C)/C1=C(\CCC=C(C)C)C(=O)O [FUSIDIC ACID]	50%	34%	HYPERBILIRUBINEMIE	2 days - 2 months	Dose-dependant	12	19	0	2	0	0	0	0	0	0	0	0	–	–	–
COc1c(N2CCNC(C)C2)c(F)cc2c(=O)c(C(=O)O)cn(C3CC3)c12 (stereo not given) [GATIFLOXACIN]	6.5%	0%	CHOLESTASE_PROLONGEE DUCTOPENIE	2 days - 8 days	Allergic	18	3	2	2	1	1	0	0	0	2	0	0	–	–	–
Fc1ccc([C@@H]2CCNC[C@H]2COc2ccc3c(c2)OCO3)cc1 [PAROXETINE]	11%	2%	AC_ANTI-N I/ATRIUM* RC/DOSULEPINE	6 days - 15 months	Allergic	6	8	5	2	1	1	0	0	0	0	0	0	–	–	–

Source: ChEMBL document CHEMBL3137667, “[Drug-induced liver injury; fourteenth updated edition of the bibliographic database of liver injuries and related drugs]” (Gastroenterol Clin Biol, 2004)
